Measured values from patent US20240376123A1, “KRAS G12D INHIBITORS AND USES THEREOF” (SUZHOU ZANRONG PHARMA LIMITED, priority 2021, published 2024).

The compounds below were run on p-ERK in PNAC-1/HPAC cell (assay: Phospho-ERK 1/2 assay (Table 1)). Conditions: Homo sapiens; PNAC-1/HPAC cell, 3 hours compound incubation; read-out: p-ERK IC50.
Assay type: cell-based
Protocol: Allow PNAC-1/HPAC cell growth in a T75 flask in DMEM and 10% 1 fetal calf serum (FCS; Gibco), using standard tissue culture procedures until ˜80% confluency is achieved. Day 1, seed 6000 cells/well in 384 well plate and incubate at 37° C., 5% CO2. Add diluted compound by Echo 550, final DMSO is 0.5%, incubate cells at 37° C., 5% CO2 for 3 hours. Then, remove medium and fix cells with 3.7% formaldehyde in PBS (PFA) by Apricot. Wash with PBS once. Permeabilize cells with cold 100% methanol and repeat wash once with PBS once. Add Li-Cor blocking buffer to each well and incubate 1.5 hours at RT. Remove blocking buffer and add primary antibody mixture (rabbit anti pERK, mouse anti GAPDH). Incubate at 4° C. overnight. Day 2, wash with PBST (Tween-20 in PBS) with total 3 times and then add secondary antibody mixture (goat anti rabbit 800CW (1:800 dilution in the combined solution) and goat anti mouse 680RD (1:800 dilution in the combined solution)), incubate for 60 minutes at RT away from light. Repeat washing with PBST 3 times. After final wash, centrifuge plate up-side-down at 1000 rpm to remove wash solution completely from wells. Before plate scanning, clean the bottom plate surface and the Odyssey* Imager scanning bed (if applicable) with moist, lint-free tissue to avoid any obstructions during scanning. Scan plate with detection in both 700 and 800 nm channels.

| Structure (SMILES) | IC50 [nM] |
| --- | --- |
| Fc1ccc2cccc(-c3nc4c5c(nc(OC[C@@]67CCCN6C[C@H](F)C7)nc5c3F)N3C[C@@H]5CC[C@@H](N5)C3CO4)c2c1Cl (stereo partly drawn) [Compound 11, (6R,9S)-2-(8-chloro-7-fluoronaphthalen-1-yl)-1-fluoro-12-(((2R,7aS)-2-fluorotetrahydro-1H-pyrrolizin-7a(5H)-yl)methoxy)-5a,6,7,8,9,10-hexahydro-5H-4-oxa-3,10a,11,13,14-pentaaza-6,9-methanonaphtho[1,8-ab]heptalene] | 53 |
| Fc1c(-c2cccc3cccc(Cl)c23)nc2c3c(nc(OC[C@@]45CCCN4C[C@H](F)C5)nc13)N1C[C@@H]3CC[C@@H](N3)C1CO2 (stereo partly drawn) [Compound 12, (6R,9S)-2-(8-chloronaphthalen-1-yl)-1-fluoro-12-(((2R,7aS)-2-fluorotetrahydro-1H-pyrrolizin-7a(5H)-yl)methoxy)-5a,6,7,8,9,10-hexahydro-5H-4-oxa-3,10a,11,13,14-pentaaza-6,9-methanonaphtho[1,8-ab]heptalene] | 68 |
| Cc1c(F)ccc2cccc(-c3nc4c5c(nc(OC[C@@]67CCCN6C[C@H](F)C7)nc5c3F)N3C[C@@H]5CC[C@@H](N5)C3CO4)c12 (stereo partly drawn) [Compound 13, (6R,9S)-1-fluoro-2-(7-fluoro-8-methylnaphthalen-1-yl)-12-(((2R,7aS)-2-fluorotetrahydro-1H-pyrrolizin-7a(5H)-yl)methoxy)-5a,6,7,8,9,10-hexahydro-5H-4-oxa-3,10a,11,13,14-pentaaza-6,9-methanonaphtho[1,8-ab]heptalene] | 237 |
| Fc1ccc2cccc(-c3nc4c5c(nc(OC[C@@]67CCCN6C[C@H](F)C7)nc5c3F)N3C[C@@H]5CC[C@@H](N5)C3CO4)c2c1F (stereo partly drawn) [Compound 14, (6R,9S)-2-(7,8-difluoronaphthalen-1-yl)-1-fluoro-12-(((2R,7aS)-2-fluorotetrahydro-1H-pyrrolizin-7a(5H)-yl)methoxy)-5a,6,7,8,9,10-hexahydro-5H-4-oxa-3,10a,11,13,14-pentaaza-6,9-methanonaphtho[1,8-ab]heptalene] | 141 |
| Fc1c(-c2cccc3cccc(F)c23)nc2c3c(nc(OC[C@@]45CCCN4C[C@H](F)C5)nc13)N1C[C@@H]3CC[C@@H](N3)C1CO2 (stereo partly drawn) [Compound 15, (6R,9S)-1-fluoro-2-(8-fluoronaphthalen-1-yl)-12-(((2R,7aS)-2-fluorotetrahydro-1H-pyrrolizin-7a(5H)-yl)methoxy)-5a,6,7,8,9,10-hexahydro-5H-4-oxa-3,10a,11,13,14-pentaaza-6,9-methanonaphtho[1,8-ab]heptalene] | 221 |
| Fc1ccc2cccc(-c3nc4c5c(nc(OC[C@@]67CCCN6C[C@H](F)C7)nc5c3F)N3C[C@@H]5CC[C@@H](N5)C3CO4)c2c1 (stereo partly drawn) [Compound 16, (6R,9S)-1-fluoro-2-(7-fluoronaphthalen-1-yl)-12-(((2R,7aS)-2-fluorotetrahydro-1H-pyrrolizin-7a(5H)-yl)methoxy)-5a,6,7,8,9,10-hexahydro-5H-4-oxa-3,10a,11,13,14-pentaaza-6,9-methanonaphtho[1,8-ab]heptalene] | 355 |
| COc1ccc2cccc(-c3nc4c5c(nc(OC[C@@]67CCCN6C[C@H](F)C7)nc5c3F)N3C[C@@H]5CC[C@@H](N5)C3CO4)c2c1 (stereo partly drawn) [Compound 17, (6R,9S)-1-fluoro-12-(((2R,7As)-2-fluorotetrahydro-1H-pyrrolizin-7a(5H)-yl)methoxy)-2-(7-methoxynaphthalen-1-yl)-5a,6,7,8,9,10-hexahydro-5H-4-oxa-3,10a,11,13,14-pentaaza-6,9-methanonaphtho[1,8-ab]heptalene] | 1000 |
| Fc1cc2cccc(F)c2c(-c2nc3c4c(nc(OC[C@@]56CCCN5C[C@H](F)C6)nc4c2F)N2C[C@@H]4CC[C@@H](N4)C2CO3)n1 (stereo partly drawn) [Compound 18, (6R,9S)-2-(3,8-difluoroisoquinolin-1-yl)-1-fluoro-12-(((2R,7aS)-2-fluorotetrahydro-1H-pyrrolizin-7a(5H)-yl)methoxy)-5a,6,7,8,9,10-hexahydro-5H-4-oxa-3,10a,11,13,14-pentaaza-6,9-methanonaphtho[1,8-ab]heptalene] | 404 |
